Test results taken from US6747033B2, “Fungicidal triazolopyrimid-7-ylideneamines” (BASF Aktiengesellschaft, priority 2000, dated 2004).
Read-outs that look alike come from different tables or passages of the source.

How the values were obtained:
[1] = tested on: Pyricularia grisea f. sp. oryzae; type: in vivo; conditions: Rice Blast
Botrytis cinera = assay: In vivo fungicidal activity, Pepper Botrytis (PB); note: ranges in brackets are in %
Venturia inaequalis = assay: In vivo fungicidal activity, Apple Scab (AS); note: ranges in brackets are in %
Alternara solani = assay: In vivo fungicidal activity, Tomato early blight (TEB); note: ranges in brackets are in %
Plasmopara viticola = assay: In vivo fungicidal activity, Grape downy mildew (GDM); note: ranges in brackets are in %
Blumeria graminis = assay: In vivo fungicidal activity, Wheat powdery mildew (WPM); note: ranges in brackets are in %
Pythium ultimum = assay: In vitro fungicidal activity, Fruit rot (PYTHUL); type: cell-based; set-up: key: 0: None; 3: slight; 5: moderate; 7: severe; 9: complete; conditions: 3-7 days of incubation
Protocol: (§1) Test compounds are dissolved in acetone to give concentrations of 25, 10 and 1 ppm and are added to individual cell Walls (24-cell-well plates, Corning), which were previously filled with a suspension of ground plates, Corning), which were previously filled with a suspension of ground fungal mycelium in a chemically defined growth medium. After 3-7 days of incubation, inhibition of […] growth is recorded using the following scale: The data obtained are shown in Table II. [table]

Rhizoctonia solani = assay: In vitro fungicidal activity, Rice sheath blight (RHIZSO); type: cell-based; set-up: key: 0: None; 3: slight; 5: moderate; 7: severe; 9: complete; conditions: 3-7 days of incubation
Protocol: as §1

[2] = tested on: Pseudocercosporella herpotrichoides; assay: In vitro fungicidal activity, Cereal eye spot (PSDCHE); type: cell-based; set-up: key: 0: None; 3: slight; 5: moderate; 7: severe; 9: complete; conditions: 3-7 days of incubation
Protocol: as §1

CC(N=c1c(-c2c(F)cccc2F)c(Cl)n(C)c2ncnn12)C(F)(F)F (stereo not drawn) [Example 5]
RB disease control rating ([1]; 12.5 ppm spray): 0 (0) | RB disease control rating ([1]; 50 ppm spray): 0 (0) | RB disease control rating ([1]; 200 ppm spray): 0 (0) | PB disease control rating (Botrytis cinera; 12.5 ppm spray): 0 (0) | PB disease control rating (Botrytis cinera; 50 ppm spray): 0 (0) | PB disease control rating (Botrytis cinera; 200 ppm spray): 1 (1-14) | AS disease control rating (Venturia inaequalis; 12.5 ppm spray): 0 (0) | AS disease control rating (Venturia inaequalis; 50 ppm spray): 0 (0) | AS disease control rating (Venturia inaequalis; 200 ppm spray): 0 (0) | TEB disease control rating (Alternara solani; 12.5 ppm spray): 0 (0) | TEB disease control rating (Alternara solani; 50 ppm spray): 0 (0) | TEB disease control rating (Alternara solani; 200 ppm spray): 0 (0) | GDM disease control rating (Plasmopara viticola; 12.5 ppm spray): 6 (75-89) | GDM disease control rating (Plasmopara viticola; 50 ppm spray): 6 (75-89) | GDM disease control rating (Plasmopara viticola; 200 ppm spray): 5 (60-74) | WPM disease control rating (Blumeria graminis; 12.5 ppm spray): 0 (0) | WPM disease control rating (Blumeria graminis; 50 ppm spray): 3 (30-44) | WPM disease control rating (Blumeria graminis; 200 ppm spray): 6 (75-89)

CC(N=c1c(-c2ccccc2Cl)c(Cl)n(C)c2ncnn12)C(F)(F)F (stereo not drawn) [Example 6]
PYTHU inhibition of mycelial growth rating (Pythium ultimum; 1 ppm): 0 | PYTHU inhibition of mycelial growth rating (Pythium ultimum; 10 ppm): 0 | PYTHU inhibition of mycelial growth rating (Pythium ultimum; 25 ppm): 0 | RB disease control rating ([1]; 12.5 ppm spray): 0 (0) | RB disease control rating ([1]; 50 ppm spray): 0 (0) | RB disease control rating ([1]; 200 ppm spray): 5 (60-74) | PB disease control rating (Botrytis cinera; 12.5 ppm spray): 0 (0) | PB disease control rating (Botrytis cinera; 50 ppm spray): 0 (0) | PB disease control rating (Botrytis cinera; 200 ppm spray): 0 (0) | AS disease control rating (Venturia inaequalis; 12.5 ppm spray): 0 (0) | AS disease control rating (Venturia inaequalis; 50 ppm spray): 0 (0) | AS disease control rating (Venturia inaequalis; 200 ppm spray): 5 (60-74) | RHIZSO inhibition of mycelial growth rating (Rhizoctonia solani; 1 ppm): 0 | RHIZSO inhibition of mycelial growth rating (Rhizoctonia solani; 10 ppm): 0 | RHIZSO inhibition of mycelial growth rating (Rhizoctonia solani; 25 ppm): 0 | PSDCH inhibition of mycelial growth rating ([2]; 1 ppm): 0 | PSDCH inhibition of mycelial growth rating ([2]; 10 ppm): 1 | PSDCH inhibition of mycelial growth rating ([2]; 25 ppm): 0 | TEB disease control rating (Alternara solani; 12.5 ppm spray): 0 (0) | TEB disease control rating (Alternara solani; 50 ppm spray): 0 (0) | TEB disease control rating (Alternara solani; 200 ppm spray): 0 (0) | GDM disease control rating (Plasmopara viticola; 12.5 ppm spray): 0 (0) | GDM disease control rating (Plasmopara viticola; 50 ppm spray): 0 (0) | GDM disease control rating (Plasmopara viticola; 200 ppm spray): 7 (90-95) | WPM disease control rating (Blumeria graminis; 12.5 ppm spray): 0 (0) | WPM disease control rating (Blumeria graminis; 50 ppm spray): 0 (0) | WPM disease control rating (Blumeria graminis; 200 ppm spray): 5 (60-74)

CC(N=c1c(-c2ccc(F)cc2F)c(Cl)n(C)c2ncnn12)C(F)(F)F (stereo not drawn) [Example 7]
PYTHU inhibition of mycelial growth rating (Pythium ultimum; 1 ppm): 0 | PYTHU inhibition of mycelial growth rating (Pythium ultimum; 10 ppm): 0 | PYTHU inhibition of mycelial growth rating (Pythium ultimum; 25 ppm): 0 | RB disease control rating ([1]; 12.5 ppm spray): 0 (0) | RB disease control rating ([1]; 50 ppm spray): 0 (0) | RB disease control rating ([1]; 200 ppm spray): 4 (45-59) | PB disease control rating (Botrytis cinera; 12.5 ppm spray): 2 (15-29) | PB disease control rating (Botrytis cinera; 50 ppm spray): 0 (0) | PB disease control rating (Botrytis cinera; 200 ppm spray): 0 (0) | AS disease control rating (Venturia inaequalis; 12.5 ppm spray): 0 (0) | AS disease control rating (Venturia inaequalis; 50 ppm spray): 0 (0) | AS disease control rating (Venturia inaequalis; 200 ppm spray): 6 (75-89) | RHIZSO inhibition of mycelial growth rating (Rhizoctonia solani; 1 ppm): 5 | RHIZSO inhibition of mycelial growth rating (Rhizoctonia solani; 10 ppm): 5 | RHIZSO inhibition of mycelial growth rating (Rhizoctonia solani; 25 ppm): 5 | PSDCH inhibition of mycelial growth rating ([2]; 1 ppm): 0 | PSDCH inhibition of mycelial growth rating ([2]; 10 ppm): 1 | PSDCH inhibition of mycelial growth rating ([2]; 25 ppm): 0 | TEB disease control rating (Alternara solani; 12.5 ppm spray): 0 (0) | TEB disease control rating (Alternara solani; 50 ppm spray): 0 (0) | TEB disease control rating (Alternara solani; 200 ppm spray): 0 (0) | GDM disease control rating (Plasmopara viticola; 12.5 ppm spray): 0 (0) | GDM disease control rating (Plasmopara viticola; 50 ppm spray): 0 (0) | GDM disease control rating (Plasmopara viticola; 200 ppm spray): 8 (96-99) | WPM disease control rating (Blumeria graminis; 12.5 ppm spray): 0 (0) | WPM disease control rating (Blumeria graminis; 50 ppm spray): 4 (45-59) | WPM disease control rating (Blumeria graminis; 200 ppm spray): 6 (75-89)

Cn1c(Cl)c(-c2c(F)cc(F)cc2F)c(=NCC(F)(F)F)n2ncnc12 [Example 8]
PYTHU inhibition of mycelial growth rating (Pythium ultimum; 1 ppm): 0 | PYTHU inhibition of mycelial growth rating (Pythium ultimum; 10 ppm): 0 | PYTHU inhibition of mycelial growth rating (Pythium ultimum; 25 ppm): 0 | RB disease control rating ([1]; 12.5 ppm spray): 0 (0) | RB disease control rating ([1]; 50 ppm spray): 0 (0) | RB disease control rating ([1]; 200 ppm spray): 4 (45-59) | PB disease control rating (Botrytis cinera; 12.5 ppm spray): 0 (0) | PB disease control rating (Botrytis cinera; 50 ppm spray): 0 (0) | PB disease control rating (Botrytis cinera; 200 ppm spray): 0 (0) | AS disease control rating (Venturia inaequalis; 12.5 ppm spray): 0 (0) | AS disease control rating (Venturia inaequalis; 50 ppm spray): 0 (0) | AS disease control rating (Venturia inaequalis; 200 ppm spray): 5 (60-74) | RHIZSO inhibition of mycelial growth rating (Rhizoctonia solani; 1 ppm): 7 | RHIZSO inhibition of mycelial growth rating (Rhizoctonia solani; 10 ppm): 7 | RHIZSO inhibition of mycelial growth rating (Rhizoctonia solani; 25 ppm): 7 | PSDCH inhibition of mycelial growth rating ([2]; 1 ppm): 0 | PSDCH inhibition of mycelial growth rating ([2]; 10 ppm): 0 | PSDCH inhibition of mycelial growth rating ([2]; 25 ppm): 0 | TEB disease control rating (Alternara solani; 12.5 ppm spray): 2 (15-29) | TEB disease control rating (Alternara solani; 50 ppm spray): 0 (0) | TEB disease control rating (Alternara solani; 200 ppm spray): 0 (0) | GDM disease control rating (Plasmopara viticola; 12.5 ppm spray): 5 (60-74) | GDM disease control rating (Plasmopara viticola; 50 ppm spray): 4 (45-59) | GDM disease control rating (Plasmopara viticola; 200 ppm spray): 5 (60-74) | WPM disease control rating (Blumeria graminis; 12.5 ppm spray): 2 (15-29) | WPM disease control rating (Blumeria graminis; 50 ppm spray): 4 (45-59) | WPM disease control rating (Blumeria graminis; 200 ppm spray): 7 (90-95)
